Measured values reported in EP1144365B1 (TANABE SEIYAKU CO., LTD., priority 1998, dated 2000).

How the values were obtained:
α4β1 integrin = biological target: T1, α4β1 integrin (Homo sapiens, UniProt P05556+P13612); assay: Jurkat-Endothelial Cell Adhesion Assay (Jurkat EC); type: cell-based; conditions: Jurkat cell adhesion to IL-1 stimulated endothelial cell monolayers
T1 construct: a T-cell line, Jurkat, known to express the α4β1 integrin; host or cells: Jurkat T-cell line
Procedure, shortened: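 BCECF-loaded Jurkat T cells (5 x 10^5) mixed with compound, generally 100, 20, 5 and 1.25 µM, in DMEM-HSA, added to HUVEC monolayers prestimulated 4 h with 0.1 ng/ml IL-1. After washing, adherent-cell fluorescence read; % adhesion relative to no-compound control set at 100%.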

α4β1 = biological target: T2, α4β1 (Homo sapiens, UniProt P05556+P13612); assay: Jurkat-CS-1 assay; type: cell-based; conditions: Jurkat cell adhesion to immobilized CS-1 derived peptide
T2 construct: 100 µl of Jurkat cells (2.5 x 10^6 cells/ml) in DMEM plus BSA; host or cells: Jurkat T-cell line
T2 sequence (P13612 34-1032): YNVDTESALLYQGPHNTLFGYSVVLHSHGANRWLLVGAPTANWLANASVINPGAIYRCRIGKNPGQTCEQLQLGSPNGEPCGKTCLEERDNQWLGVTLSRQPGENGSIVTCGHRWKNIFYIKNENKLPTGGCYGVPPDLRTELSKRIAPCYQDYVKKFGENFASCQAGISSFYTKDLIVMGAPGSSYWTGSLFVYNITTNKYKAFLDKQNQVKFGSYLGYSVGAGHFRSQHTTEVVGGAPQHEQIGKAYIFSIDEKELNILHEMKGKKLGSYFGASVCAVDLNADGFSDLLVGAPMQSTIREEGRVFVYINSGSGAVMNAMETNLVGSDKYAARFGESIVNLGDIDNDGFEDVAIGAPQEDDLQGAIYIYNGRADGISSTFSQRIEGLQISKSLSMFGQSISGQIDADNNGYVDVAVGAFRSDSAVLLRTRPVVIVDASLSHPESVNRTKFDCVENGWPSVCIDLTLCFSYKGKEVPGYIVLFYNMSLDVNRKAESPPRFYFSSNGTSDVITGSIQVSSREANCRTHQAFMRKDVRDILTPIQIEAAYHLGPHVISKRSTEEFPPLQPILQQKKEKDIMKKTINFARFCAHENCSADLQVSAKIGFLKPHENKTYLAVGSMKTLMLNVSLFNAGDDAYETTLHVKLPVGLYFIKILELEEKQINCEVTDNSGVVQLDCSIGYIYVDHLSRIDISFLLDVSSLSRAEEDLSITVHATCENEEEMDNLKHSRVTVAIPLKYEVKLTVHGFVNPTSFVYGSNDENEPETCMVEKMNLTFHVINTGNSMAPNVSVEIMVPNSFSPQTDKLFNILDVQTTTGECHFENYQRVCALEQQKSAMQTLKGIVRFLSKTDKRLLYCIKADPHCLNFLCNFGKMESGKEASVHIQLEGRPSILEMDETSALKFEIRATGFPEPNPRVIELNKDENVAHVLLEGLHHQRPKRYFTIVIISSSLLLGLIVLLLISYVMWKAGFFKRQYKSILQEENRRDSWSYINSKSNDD
T2 sequence (P05556 21-798): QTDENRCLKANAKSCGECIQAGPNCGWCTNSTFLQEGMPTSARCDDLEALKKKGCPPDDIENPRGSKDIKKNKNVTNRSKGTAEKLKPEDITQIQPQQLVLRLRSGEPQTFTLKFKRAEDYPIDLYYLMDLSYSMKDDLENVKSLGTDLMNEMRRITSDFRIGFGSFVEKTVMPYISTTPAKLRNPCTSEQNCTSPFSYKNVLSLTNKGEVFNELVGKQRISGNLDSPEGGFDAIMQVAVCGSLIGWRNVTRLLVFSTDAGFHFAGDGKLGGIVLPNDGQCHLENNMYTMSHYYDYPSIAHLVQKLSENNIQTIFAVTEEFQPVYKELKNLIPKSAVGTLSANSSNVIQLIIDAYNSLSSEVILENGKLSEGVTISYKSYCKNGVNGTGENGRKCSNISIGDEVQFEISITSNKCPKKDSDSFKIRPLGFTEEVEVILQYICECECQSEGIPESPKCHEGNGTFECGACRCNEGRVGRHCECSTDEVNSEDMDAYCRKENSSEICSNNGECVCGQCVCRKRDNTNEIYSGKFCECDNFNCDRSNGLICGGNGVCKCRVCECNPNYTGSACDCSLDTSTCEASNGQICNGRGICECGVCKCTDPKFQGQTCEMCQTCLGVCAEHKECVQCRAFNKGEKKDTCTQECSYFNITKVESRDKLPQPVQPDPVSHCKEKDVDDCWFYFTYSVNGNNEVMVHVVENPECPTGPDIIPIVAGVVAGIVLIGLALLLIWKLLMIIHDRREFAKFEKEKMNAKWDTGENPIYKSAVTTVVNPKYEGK

T1 sequence (P13612 34-1032): as the sequence (P13612 34-1032) above
T1 sequence (P05556 21-798): as the sequence (P05556 21-798) above

IC50 (α4β1 integrin)	IC50 (α4β1)	Compound
800 to 5000 nM	500 to 1000 nM	COC(=O)[C@H](Cc1ccc(NC(=O)c2c(Cl)cccc2Cl)cc1)NC(=O)c1cccc2c1CCC/C2=C/C(=O)O [Example 130, N-[[(5Z)-5-Carboxymethylene-7,8-dihydro-1(6H)-naphthyl]carbonyl]-4-[(2,6-dichlorobenzoyl)amino]-L-phenylalanine methyl ester]
≤ 800 nM	≤ 80 nM	O=C(Nc1ccc(CC(NC(=O)C2CCCCC2NC(=O)C2CCCO2)C(=O)O)cc1)c1c(Cl)cccc1Cl (stereo not drawn) [Example 86]
≤ 800 nM	80 to 500 nM	CC1(C)[C@@H](C(=O)O)C[C@@H]1C(=O)N[C@@H](Cc1ccc(NC(=O)c2c(Cl)cccc2Cl)cc1)C(=O)O [Example 98, (1S-trans)-N-[(3-Carboxy-2,2-dimethylcyclobutyl)carbonyl]-4-[(2,6-dichlorobenzoyl)amino]-L-phenylalanine]
≤ 800 nM	80 to 500 nM	O=C(NC1CCCCC1C(=O)NC(Cc1ccc(NC(=O)c2c(Cl)cccc2Cl)cc1)C(=O)O)c1cc(O)c2ccccc2n1 (stereo not drawn) [Example 82]
≤ 800 nM	80 to 500 nM	O=C(O)/C=C1\CCCc2c(C(=O)N[C@@H](Cc3ccc(NC(=O)c4c(Cl)cccc4Cl)cc3)C(=O)O)cccc21 [Example 134, N-[[(5E)-5-Carboxymethylene-7,8-dihydro-1(6H)-naphthyl]carbonyl]-4-[(2,6-dichlorobenzoyl)amino]-L-phenylalanine]
≤ 800 nM	80 to 500 nM	O=C(O)c1ccc(C(=O)NC2(C(=O)N[C@@H](Cc3ccc(NC(=O)c4c(Cl)cccc4Cl)cc3)C(=O)O)CC3CCC2C3)nc1 (stereo partly drawn) [Example 72]
≤ 800 nM	80 to 500 nM	O=C(Nc1ccc(C[C@H](NC(=O)C2(NC(=O)C3CCCO3)CC3CCC2C3)C(=O)O)cc1)c1c(Cl)cccc1Cl (stereo partly drawn) [Example 77]
≤ 800 nM	80 to 500 nM	CC1(C)[C@@H](C(=O)O)C[C@H]1C(=O)N[C@@H](Cc1ccc(NC(=O)c2c(Cl)cccc2Cl)cc1)C(=O)O [Example 103, (1R-cis)-N-[(3-Carboxy-2,2-dimethylcyclobutyl)carbonyl]-4-[(2,6-dichlorobenzoyl)amino]-L-phenylalanine]
≤ 800 nM	80 to 500 nM	O=C(Nc1ccc(C[C@H](NC(=O)C2(NC(=O)C3NC(C(=O)O)CS3)CC3CCC2C3)C(=O)O)cc1)c1c(Cl)cccc1Cl (stereo partly drawn) [Example 75]
≤ 800 nM	80 to 500 nM	O=C(O)/C=C\C(=O)NC1(C(=O)N[C@@H](Cc2ccc(NC(=O)c3c(Cl)cccc3Cl)cc2)C(=O)O)CCCCC1 [Example 49]
800 to 5000 nM	80 to 500 nM	O=C(NC1(C(=O)N[C@@H](Cc2ccc(NC(=O)c3c(Cl)cccc3Cl)cc2)C(=O)O)CCCCC1)c1cc(C(=O)O)[nH]n1 [Example 65]
5000 to 10000 nM	500 to 1000 nM	O=C(O)/C=C/C(=O)NC1(C(=O)N[C@@H](Cc2ccc(NC(=O)c3c(Cl)cccc3Cl)cc2)C(=O)O)CCCCC1 [Example 50]
5000 to 10000 nM	500 to 1000 nM	O=C(O)/C=C/C(=O)Nc1cccc(C(=O)N[C@@H](Cc2ccc(NC(=O)c3c(Cl)cccc3Cl)cc2)C(=O)O)c1 [Example 37]
800 to 5000 nM	≤ 80 nM	O=C(O)C=C1CCC(C(=O)N[C@@H](Cc2ccc(NC(=O)c3c(Cl)cccc3Cl)cc2)C(=O)O)CC1 (stereo partly drawn) [Example 126, N-[[4-(Carboxymethylene)cyclohexyl]carbonyl]-4-[(2,6-dichlorobenzoyl)amino]-L-phenylalanine]
800 to 5000 nM	80 to 500 nM	O=C(O)c1cncc(C(=O)NC2(C(=O)N[C@@H](Cc3ccc(NC(=O)c4c(Cl)cccc4Cl)cc3)C(=O)O)CCCCC2)c1 [Example 59]
800 to 5000 nM	80 to 500 nM	CC(=O)[C@H]1C[C@@H](C(=O)N[C@@H](Cc2ccc(NC(=O)c3c(Cl)cccc3Cl)cc2)C(=O)O)C1(C)C [Example 101, (1R-cis)-N-[(3-Acetyl-2,2-dimethyleyclobutyl)carbonyl]-4-[(2,6-dichlorobenzoyl)-amino]-L-phenylalanine]
≤ 800 nM	80 to 500 nM	CC1(C)[C@H](C(=O)O)C[C@H]1C(=O)N[C@@H](Cc1ccc(NC(=O)c2c(Cl)cccc2Cl)cc1)C(=O)O [Example 102, (1R-trans)-N-[(3-Carboxy-2,2-dimethylcyclobutyl)carbonyl]-4-[(2,6-dichlorobenzoyl)amino]-L-phenylalanine]
5000 to 10000 nM	500 to 1000 nM	CC(O)[C@H]1C[C@@H](CC(=O)N[C@@H](Cc2ccc(NC(=O)c3c(Cl)cccc3Cl)cc2)C(=O)O)C1(C)C (stereo partly drawn) [Example 89, [1S-(1α,3α)]-4-[(2,6-Dichlorobenzoyl)amino]-N-[[3-(1-hydroxyethyl)-2,2-dimethylcyclobutyl]acetyl]-L-phenylalanine]
800 to 5000 nM	80 to 500 nM	COc1ccc(C(=O)NC2(C(=O)N[C@@H](Cc3ccc(NC(=O)c4c(Cl)cccc4Cl)cc3)C(=O)O)CCCCC2)cc1OC [Example 55]
800 to 5000 nM	80 to 500 nM	CC1(C)[C@@H](C(=O)N[C@@H](Cc2ccc(NC(=O)c3c(Cl)cccc3Cl)cc2)C(=O)O)C[C@H]1C(=O)O [Example 99, (1S-cis)-N-[(3-Carboxy-2,2-dimethylcyclobutyl)carbonyl]-4-[(2,6-dichlorobenzoyl)amino]-L-phenylalanine]
≤ 800 nM	≤ 80 nM	CC1=C(C(=O)N[C@@H](Cc2ccc(NC(=O)c3c(Cl)cccc3Cl)cc2)C(=O)O)C(C)(C)CC/C1=C\C#N [Example 120, N-[[(3E)-3-Cyanomethylene-2,6,6-trimethyl-1-cyclohexen-1-yl]carbonyl]-4-[(2,6-dichlorobenzoyl)amino]-L-phenylalanine]
800 to 5000 nM	500 to 1000 nM	O=C(N[C@@H](Cc1ccc(NC(=O)c2c(Cl)cccc2Cl)cc1)C(=O)O)c1cccc(NC(=O)C2CCCC(C(=O)O)C2)c1 (stereo partly drawn) [Example 38]
≤ 800 nM	80 to 500 nM	O=C(Nc1ccc(C[C@H](NC(=S)N2CCCC(C(=O)O)C2)C(=O)O)cc1)c1c(Cl)cccc1Cl (stereo partly drawn) [Example 117, 1-[[[(1S)-1-carboxy-2-[4-[(2,6-dichlorobenzoyl)amino]phenyl]ethyl]amino]thiocarbonyl]-3-piperidinecarboxylic acid]
800 to 5000 nM	≤ 80 nM	COCCC(=O)NC1(C(=O)N[C@@H](Cc2ccc(NC(=O)c3c(Cl)cccc3Cl)cc2)C(=O)O)CCCCC1 [Example 51]
